# In publication PMC6271978, “1H-2,3-Dihydroperimidine Derivatives: A New Class of Potent Protein Tyrosine Phosphatase 1B Inhibitors” (Molecules, 2013):
# Legend:
# Format in all cases: biochemical
# PTP1B (GST-PTP1B) = biological target: T1, PTP1B (GST-PTP1B) (Homo sapiens, UniProt P18031); experiment: PTP1B inhibition, colorimetric pNPP assay; conditions: pNPP substrate
# T1 sequence (P18031 1-435): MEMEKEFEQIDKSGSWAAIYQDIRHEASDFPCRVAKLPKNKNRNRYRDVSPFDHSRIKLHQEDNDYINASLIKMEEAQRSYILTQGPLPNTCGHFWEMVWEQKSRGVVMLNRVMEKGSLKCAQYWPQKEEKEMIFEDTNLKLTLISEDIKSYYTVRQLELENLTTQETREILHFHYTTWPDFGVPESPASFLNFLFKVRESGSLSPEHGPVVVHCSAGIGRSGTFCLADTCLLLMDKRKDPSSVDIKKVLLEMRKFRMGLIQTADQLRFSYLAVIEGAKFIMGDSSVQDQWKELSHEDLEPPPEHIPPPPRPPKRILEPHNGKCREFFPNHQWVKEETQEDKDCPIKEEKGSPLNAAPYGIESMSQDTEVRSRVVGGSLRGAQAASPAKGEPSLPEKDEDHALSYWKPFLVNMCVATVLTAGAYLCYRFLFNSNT
# TCPTP (GST-TCPTP) = biological target: T2, TCPTP (GST-TCPTP) (Homo sapiens, UniProt P17706); experiment: TCPTP inhibition, colorimetric pNPP assay
# T2 sequence (P17706 1-415): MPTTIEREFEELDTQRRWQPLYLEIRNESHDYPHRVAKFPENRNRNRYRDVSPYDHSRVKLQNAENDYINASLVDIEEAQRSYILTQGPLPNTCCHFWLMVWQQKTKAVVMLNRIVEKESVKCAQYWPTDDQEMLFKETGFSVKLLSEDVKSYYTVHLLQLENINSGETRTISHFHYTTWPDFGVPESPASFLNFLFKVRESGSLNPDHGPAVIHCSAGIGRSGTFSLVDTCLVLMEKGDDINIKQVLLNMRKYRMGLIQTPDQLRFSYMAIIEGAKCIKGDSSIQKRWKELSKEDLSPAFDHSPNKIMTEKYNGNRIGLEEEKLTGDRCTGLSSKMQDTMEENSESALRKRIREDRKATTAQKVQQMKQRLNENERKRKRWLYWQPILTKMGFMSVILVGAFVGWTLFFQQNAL
# Description: (§1) In addition to potency improvements, we investigated the selectivity of three representative compounds, namely, 1, 46 and 49 against other PTPs (TCPTP, SHP-1, SHP-2, LAR). […] Besides TCPTP, we tested the inhibitory activity of these compounds on other three homogenous enzymes SHP-1, SHP-2, and LAR [25].
# (§2) A colorimetric assay to measure inhibition against PTP1B and TCPTP was performed in 96-well plates. Briefly, the tested compounds were solubilized in DMSO and serially diluted into concentrations for the inhibitory test. The assays were carried out in a final volume of 100 μL containing 50 mmol/L MOPS, pH 6.5, 2 mmol/L pNPP, 30 nmol/L GST-PTP1B or GST-TCPTP,and 2% DMSO, and the catalysis of pNPP was continuously monitored on a SpectraMax 340 microplate reader at 405 nm for 3 min at 30 °C. The IC50 value was calculated from the nonlinear curve fitting of the percent inhibition [inhibition (%)] vs. the inhibitor concentration using the Equation (1): Inhibition (%) = 100/[1 + (IC50/[I]k)] (1) where k is the Hill coefficient. To study the inhibition on the other PTPase family members, SHP1, SHP2 and LAR were prepared and assays were performed according to procedures described previously. Briefly, the enzymatic activity of the SHP1, SHP2 and LARwere determined at 30 °C by monitoring the dephosphorylation of substrate 3-o-methylfluorescein phosphate (OMFP), product was then detected at a 485 nm excitation wavelength and 530 nm emission wavelength by the EnVision multilabe plate reader (Perkin-Elmer Life Sciences, Boston, MA, USA). The assays were carried out in a final volume of 50 μL containing 50 mmol/L MOPS, pH 6.8, 10 μmol/L OMFP, 20 nmol/L recombinant enzyme, 2 mmol/L dithiothreitol , 1 mmol/L EDTA, and 2% DMSO. The initial rate of the dephosphorylation was presented by the early linear region of the enzymatic reaction kinetic curve, the inhibitory activity of the compound was continuously monitored.
# SHP-1 = biological target: T3, SHP-1 (Homo sapiens, UniProt P29350); experiment: SHP-1 inhibition, OMFP substrate assay
# T3 construct: made in house
# Description: as §1, §2
# SHP-2 = biological target: T4, SHP-2 (Homo sapiens, UniProt Q06124); experiment: SHP-2 inhibition, OMFP substrate assay
# T4 construct: made in house
# T4 sequence (Q06124 1-593): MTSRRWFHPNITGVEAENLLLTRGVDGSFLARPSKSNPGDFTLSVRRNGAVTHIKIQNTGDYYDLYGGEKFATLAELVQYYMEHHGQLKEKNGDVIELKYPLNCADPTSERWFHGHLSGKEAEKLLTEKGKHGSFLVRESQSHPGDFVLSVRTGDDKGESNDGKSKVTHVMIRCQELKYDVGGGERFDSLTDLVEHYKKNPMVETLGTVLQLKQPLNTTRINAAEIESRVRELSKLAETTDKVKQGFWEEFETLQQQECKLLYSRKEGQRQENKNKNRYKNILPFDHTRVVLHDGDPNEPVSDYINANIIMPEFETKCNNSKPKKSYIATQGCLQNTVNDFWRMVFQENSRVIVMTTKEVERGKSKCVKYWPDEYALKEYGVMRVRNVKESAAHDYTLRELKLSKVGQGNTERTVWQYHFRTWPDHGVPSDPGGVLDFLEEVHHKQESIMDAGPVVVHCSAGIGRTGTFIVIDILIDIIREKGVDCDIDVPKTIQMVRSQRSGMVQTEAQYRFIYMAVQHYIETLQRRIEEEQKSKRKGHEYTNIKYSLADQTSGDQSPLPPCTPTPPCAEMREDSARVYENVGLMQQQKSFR
# Description: as §1, §2
# LAR = biological target: T5, LAR (Homo sapiens, UniProt P10586); experiment: LAR inhibition, OMFP substrate assay; conditions: NA = no activity (inhibitory ratio lower than 50% at the dose of 20 μg/mL), PC = Na3VO4
# T5 sequence (P10586 1352-1607 limits assumed): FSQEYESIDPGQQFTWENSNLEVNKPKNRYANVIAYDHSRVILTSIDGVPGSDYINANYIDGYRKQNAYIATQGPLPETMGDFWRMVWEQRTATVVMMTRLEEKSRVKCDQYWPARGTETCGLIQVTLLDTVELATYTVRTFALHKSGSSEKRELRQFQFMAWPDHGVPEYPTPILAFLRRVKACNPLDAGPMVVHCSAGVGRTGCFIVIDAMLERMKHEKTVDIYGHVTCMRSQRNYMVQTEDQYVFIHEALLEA
# Description: as §1
# as §2, with “To study the inhibition on the other PTPase family members, SHP1, SHP2 and LAR were prepared and assays were performed according to procedures described previously.” left out, “The assays were carried out in a final volume of 50 μL containing 50 mmol/L MOPS, pH 6.8, 10 μmol/L OMFP, 20 nmol/L recombinant enzyme, 2 mmol/L dithiothreitol , 1 mmol/L EDTA, and 2% DMSO. The initial rate of the dephosphorylation was presented by the early linear region of the enzymatic reaction kinetic curve, the inhibitory activity of the compound was continuously monitored.” left out
# [1] = means ± SD of three replications, OA/PC = oleanolic acid positive control
# [2] = OMFP substrate, means ± SD of three replications, PC = Na3VO4
# T3 sequence (P29350 whole entry): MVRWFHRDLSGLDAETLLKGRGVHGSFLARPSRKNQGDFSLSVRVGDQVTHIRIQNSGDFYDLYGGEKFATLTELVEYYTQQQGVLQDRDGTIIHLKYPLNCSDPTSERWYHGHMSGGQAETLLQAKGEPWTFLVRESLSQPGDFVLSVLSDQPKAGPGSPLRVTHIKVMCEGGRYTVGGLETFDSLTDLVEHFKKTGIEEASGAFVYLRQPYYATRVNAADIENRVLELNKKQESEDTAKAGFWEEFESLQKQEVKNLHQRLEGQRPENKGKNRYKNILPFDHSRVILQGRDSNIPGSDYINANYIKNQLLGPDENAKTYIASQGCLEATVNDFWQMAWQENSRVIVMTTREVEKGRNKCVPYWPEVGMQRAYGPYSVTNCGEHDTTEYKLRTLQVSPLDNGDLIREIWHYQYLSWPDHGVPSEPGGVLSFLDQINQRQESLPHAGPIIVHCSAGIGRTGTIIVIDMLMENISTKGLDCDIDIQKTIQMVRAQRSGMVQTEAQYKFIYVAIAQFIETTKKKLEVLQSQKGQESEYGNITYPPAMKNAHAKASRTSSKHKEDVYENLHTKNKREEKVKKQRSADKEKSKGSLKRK
structure (smiles),measurement,setting,value
O=C(O)CNC(=O)c1ccc(C2Nc3cccc4cccc(c34)N2)nc1 [Compound 46],inhibition at 20 µg/mL,"PTP1B (GST-PTP1B); PTP1B, compound at 20 μg/mL",99.5%
same,IC50,PTP1B (GST-PTP1B); [1],0.66 ± 0.03 µM
same,IC50 PTP1B,PTP1B (GST-PTP1B); [1],submicromolar
same,IC50,"TCPTP (GST-TCPTP); pNPP substrate, means ± SD of three replications, PC = oleanolic acid",2.3 ± 0.17 µM
same,"TCPTP/PTP1B (selectivity, fold)",TCPTP (GST-TCPTP); ratio of IC50 TCPTP to IC50 PTP1B,3.48
same,IC50,SHP-1; [2],6.01 ± 0.2 µM
same,selectivity for PTP1B over SHP-1,SHP-1; from IC50 values,about 9 fold
same,IC50,SHP-2; [2],5.95 ± 0.29 µM
same,selectivity for PTP1B over SHP-2,SHP-2; from IC50 values,about 9 fold
same,IC50 LAR,LAR,no visible activities
